The record followed here is ChEMBL document CHEMBL2021782, “Drug-to-genome-to-drug, step 2: reversing selectivity in a series of antiplasmodial compounds” (J Med Chem, 2012).

Data set [1] in a line: Selectivity ratio of CC50 for human MRC5 SV2 cells to IC50 for chloroquine-sensitive Plasmodium falciparum GHA strain. It is filed as ADME, cell-based. To be noted: read-out: Ratio CC50/IC50.
Data set [2] in a line: Cytotoxicity against human MRC5 SV2 cells after 72 hrs using resazurin by fluorimetry. It is filed as cell-based. Background: Alamar Blue is a resazurin reagent that responds to reducing activity.
A further data set deals with Plasmodium falciparum. The experiment in a line: Antiplasmodial activity against chloroquine-sensitive Plasmodium falciparum GHA infected in human erythrocytes after 72 hrs using malstat staining by spectrophotometry. It is filed as functional, organism-based.
Data set [3] deals with cGMP-specific 3',5'-cyclic phosphodiesterase (Bos taurus, UniProt Q28156). The experiment in a line: Inhibition of bovine PDE5 after 24 hrs by time-resolved fluorescence resonance energy transfer assay.
A short description of data set [4]: Selectivity index, ratio of IC50 for chloroquine-sensitive Plasmodium falciparum GHA to IC50 for bovine PDE5.

Turning to `O=C1[C@H]2Cc3c([nH]c4ccccc34)[C@@H](c3ccc(OC(F)F)cc3)N2C(=O)CN1[C@@H]1CCN(Cc2ccccc2)C1`, in data set [1], the selectivity ratio was above 6. For the same compound, the CC50 at 72 h in data set [2] was above 64 µM. This compound registered a half-maximal inhibitory concentration (IC50) in the data set with Plasmodium falciparum of 11 µM.

Regarding `COc1ccc(CN2CC[C@@H](N3CC(=O)N4[C@H](c5ccc6c(c5)OCO6)c5[nH]c6ccccc6c5C[C@@H]4C3=O)C2)cc1`, in data set [1], the selectivity ratio was below 1. Moreover, the CC50 at 72 h in data set [2] is below 1 µM. Moreover, the IC50 with Plasmodium falciparum amounted to 10 µM.

`O=C1[C@H]2Cc3c([nH]c4ccccc34)[C@@H](c3ccc4c(c3)OCO4)N2C(=O)CN1[C@@H]1CCN(CC2CCCCC2)C1`: in data set [1], the selectivity ratio worked out at 7. In data set [2], this compound registered a half-maximal cytotoxic concentration (CC50) at 72 h of 7 µM. Besides, in the data set on Plasmodium falciparum, the IC50 is 0.9 µM.

For the compound `O=C1[C@H]2Cc3c([nH]c4ccccc34)[C@@H](c3ccc4c(c3)OCO4)N2C(=O)CN1C1CCN(Cc2ccccc2)CC1`, the cytotoxic concentration (CC50) at 72 h in data set [2] stood at 7 µM.

Turning to `COc1ccc([C@@H]2c3[nH]c4ccccc4c3C[C@@H]3C(=O)N(C)CC(=O)N23)cc1OC`, in data set [1], the selectivity ratio is above 64. In addition, the CC50 at 72 h in data set [2] is above 64 µM. The IC50 in the data set with Plasmodium falciparum was above 64 µM; in data set [3], above 10 µM.

For the compound `O=C1[C@H]2Cc3c([nH]c4ccccc34)[C@@H](c3ccc4c(c3)OCO4)N2C(=O)CN1[C@@H]1CCN(CCOc2ccccc2)C1`, the selectivity ratio in data set [1] was determined as 11. The compound further displayed a cytotoxic concentration (CC50) at 72 h in data set [2] of 11 µM. The same compound gave a concentration for half-maximal inhibition (IC50) with Plasmodium falciparum of 0.7 µM.

Turning to `O=C1[C@H]2Cc3c([nH]c4ccccc34)[C@@H](c3ccc4c(c3)OCO4)N2C(=O)CN1[C@@H]1CCN(CCc2ccccc2)C1`, in data set [1], the selectivity ratio is 1. In data set [2], the half-maximal cytotoxic concentration (CC50) at 72 h worked out at 1 µM. In the data set with Plasmodium falciparum, this compound registered a 50% inhibitory concentration (IC50) of 5.3 µM.

On to `O=C1[C@H]2Cc3c([nH]c4ccccc34)[C@@H](c3ccc4c(c3)OCO4)N2C(=O)CN1[C@@H]1CCN(CC2CCCC2)C1`, for which the selectivity ratio in data set [1] is 22. Also, half-maximal cytotoxicity in data set [2] (CC50 at 72 h) was put at 22 µM. This compound registered an IC50 in the data set with Plasmodium falciparum of 0.25 µM.

In the case of `O=C1[C@H]2Cc3c([nH]c4ccccc34)[C@@H](c3ccc4c(c3)OCO4)N2C(=O)CN1[C@@H]1CCN(CCCCCO)C1`, the selectivity ratio in data set [1] was 3. The same compound registered a CC50 at 72 h in data set [2] of 3 µM. The concentration for half-maximal inhibition (IC50) in the data set with Plasmodium falciparum is 12 µM.

As to `O=C1[C@H]2Cc3c([nH]c4ccccc34)[C@@H](c3ccc4c(c3)OCO4)N2C(=O)CN1[C@@H]1CCN(Cc2ccccn2)C1`, in data set [1], the selectivity ratio worked out at 13. Moreover, the CC50 at 72 h in data set [2] turned out to be 13 µM. Further, the half-maximal inhibitory concentration (IC50) in the data set with Plasmodium falciparum came out at 4 µM; in data set [3] it was 0.002 µM.

As to `CCCCN1CC[C@@H](N2CC(=O)N3[C@H](c4ccc5c(c4)OCO5)c4[nH]c5ccccc5c4C[C@@H]3C2=O)C1`, in data set [1], the selectivity ratio is below 1. Besides, the CC50 at 72 h in data set [2] is below 1 µM. In the data set with Plasmodium falciparum, this compound gave a concentration for half-maximal inhibition (IC50) of 12 µM.

As to `CN1CC(=O)N2[C@H](c3ccc4c(c3)OCO4)c3[nH]c4ccccc4c3C[C@@H]2C1=O`, the CC50 at 72 h in data set [2] is above 64 µM. This compound showed a 50% inhibitory concentration (IC50) in the data set with Plasmodium falciparum above 64 µM.

On to `CN(C)C(=O)CN1CC[C@@H](N2CC(=O)N3[C@H](c4ccc5c(c4)OCO5)c4[nH]c5ccccc5c4C[C@@H]3C2=O)C1`, for which the selectivity ratio in data set [1] was above 32. In addition, the cytotoxic concentration (CC50) at 72 h in data set [2] is above 32 µM. The IC50 in the data set with Plasmodium falciparum worked out at 2 µM; in data set [3], 0.003 µM.

Consider `COc1cc([C@@H]2c3[nH]c4ccccc4c3C[C@@H]3C(=O)N([C@@H]4CCN(Cc5ccccc5)C4)CC(=O)N23)ccc1O`, for which the selectivity ratio in data set [1] is 44. The same compound came in with a CC50 at 72 h in data set [2] of 23 µM. Also, the IC50 is 0.52 µM in the data set on Plasmodium falciparum and above 1 µM in data set [3].

`O=C1[C@H]2Cc3c([nH]c4ccccc34)[C@@H](c3ccc(Cl)nc3)N2C(=O)CN1[C@@H]1CCN(Cc2ccccc2)C1`: the selectivity ratio in data set [1] worked out at 1. The CC50 at 72 h in data set [2] is 14 µM. This compound displayed an IC50 with Plasmodium falciparum of 11 µM.

Take `O=C1[C@H]2Cc3c([nH]c4ccccc34)[C@@H](c3ccc4c(c3)OCO4)N2C(=O)CN1[C@@H]1CCN(Cc2ccccc2)C1`: in data set [1], the selectivity ratio came to 20. In data set [2], this compound had a CC50 at 72 h of 10 µM. In data set [3], this compound registered a half-inhibitory concentration (IC50) of 0.005 µM. For the same compound, in data set [4], the Ratio IC50 came to 0.014.

`O=C1[C@H]2Cc3c([nH]c4ccccc34)[C@@H](c3ccc4c(c3)OC(F)(F)O4)N2C(=O)CN1[C@@H]1CCN(Cc2ccccc2)C1`: the selectivity ratio in data set [1] was determined as 1. Moreover, the midpoint of cytotoxicity in data set [2], the CC50 at 72 h, lay at 8 µM. In the data set with Plasmodium falciparum, the midpoint of inhibition, the IC50, lay at 11 µM.

As to `O=C1[C@H]2Cc3c([nH]c4ccccc34)[C@@H](c3ccc4nsnc4c3)N2C(=O)CN1[C@@H]1CCN(Cc2ccccc2)C1`, the selectivity ratio in data set [1] is 50. Besides, half-maximal cytotoxicity in data set [2] (CC50 at 72 h) was put at 30 µM. Moreover, the half-inhibitory concentration (IC50) in the data set on Plasmodium falciparum turned out to be 0.6 µM; in data set [3] it was 0.028 µM.

Take `CN(C)c1ccc(CN2CC[C@@H](N3CC(=O)N4[C@H](c5ccc6c(c5)OCO6)c5[nH]c6ccccc6c5C[C@@H]4C3=O)C2)cc1`: the selectivity ratio in data set [1] is below 1. Further, the CC50 at 72 h in data set [2] is below 1 µM. For the same compound, the IC50 with Plasmodium falciparum came out at 7 µM.

Regarding `O=C1[C@H]2Cc3c([nH]c4ccccc34)[C@@H](c3ccc4c(c3)OCCO4)N2C(=O)CN1[C@@H]1CCN(Cc2ccccc2)C1`, the selectivity ratio in data set [1] is above 13. The half-maximal cytotoxic concentration (CC50) at 72 h in data set [2] is above 64 µM. The compound also gave an IC50 with Plasmodium falciparum of 5 µM.

As for `O=C1[C@H]2Cc3c([nH]c4ccccc34)[C@@H](c3ccc4nonc4c3)N2C(=O)CN1[C@@H]1CCN(Cc2ccccc2)C1`, the selectivity ratio in data set [1] is above 10. In data set [2], this compound registered a 50% cytotoxic concentration (CC50) at 72 h above 64 µM. For the same compound, the half-inhibitory concentration (IC50) with Plasmodium falciparum was found to be 6 µM.

Consider `COc1ccc([C@@H]2c3[nH]c4ccccc4c3C[C@@H]3C(=O)N([C@@H]4CCN(Cc5ccccc5)C4)CC(=O)N23)cc1O`, for which the selectivity ratio in data set [1] came out at 36. In addition, in data set [2], the CC50 at 72 h was 22 µM. The IC50 with Plasmodium falciparum was 0.61 µM; in data set [3] it was 0.056 µM.

For the compound `O=C1[C@H]2Cc3c([nH]c4ccccc34)[C@@H](c3ccc4c(c3)OCO4)N2C(=O)CN1[C@@H]1CCN(Cc2ccc3c(c2)OCO3)C1`, the selectivity ratio in data set [1] worked out at 78. Further, the half-maximal cytotoxic concentration (CC50) at 72 h in data set [2] worked out at 78 µM. The IC50 amounted to 0.53 µM in the data set with Plasmodium falciparum and 0.007 µM in data set [3]. Also, in data set [4], the Ratio IC50 was 0.013.

As to `O=C1[C@H]2Cc3c([nH]c4ccccc34)[C@@H](c3ccc4nnnn4c3)N2C(=O)CN1[C@@H]1CCN(Cc2ccccc2)C1`, the selectivity ratio in data set [1] was 3. Also, the 50% cytotoxic concentration (CC50) at 72 h in data set [2] was 21 µM. This compound also had a half-maximal inhibitory concentration (IC50) with Plasmodium falciparum of 7 µM.

With `Cn1ccnc1CN1CC[C@@H](N2CC(=O)N3[C@H](c4ccc5c(c4)OCO5)c4[nH]c5ccccc5c4C[C@@H]3C2=O)C1`, the selectivity ratio in data set [1] stood at 50. The compound further returned a CC50 at 72 h in data set [2] of 50 µM. Further, the 50% inhibitory concentration (IC50) in the data set with Plasmodium falciparum was found to be 0.8 µM; in data set [3] it was 0.001 µM. For the same compound, the Ratio IC50 in data set [4] was 0.003.

For the compound `CC(C)(C)OC(=O)NCCN1CC[C@@H](N2CC(=O)N3[C@H](c4ccc5c(c4)OCO5)c4[nH]c5ccccc5c4C[C@@H]3C2=O)C1`, the selectivity ratio in data set [1] is 154. Further, the CC50 at 72 h in data set [2] came out at 154 µM. The 50% inhibitory concentration (IC50) in the data set on Plasmodium falciparum was 0.22 µM; in data set [3] it was 0.001 µM. Besides, the Ratio IC50 in data set [4] stood at 0.018.

For orientation: CC50 means the concentration giving 50% cytotoxicity. Broadly, the IC50 is the concentration that gives 50% inhibition. High values mean weaker potency, low ones greater potency.
